# In PubChem BioAssay (NCI):
#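 Cultured in 96-well plates, cells were exposed to test compound for 48 hours across five concentrations. The concentration for 50% growth inhibition is given as GI50. The concentration for full growth arrest is given as TGI.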
# Legend:
# Experiment in all cases: NCI anticancer screen, dose series, 48 h
# NCI-H460 lung = system: NCI-H460 lung
# HT29 colon = system: HT29 colon
# SK-OV-3 ovarian = system: SK-OV-3 ovarian
# SR leukemia = system: SR leukemia
# COLO 205 colon = system: COLO 205 colon
# SF-268 CNS = system: SF-268 CNS
# PC-3 prostate = system: PC-3 prostate
# HOP-62 NSCLC = system: HOP-62 NSCLC
# MCF7 breast = system: MCF7 breast
# SF-539 CNS = system: SF-539 CNS
SMILES,GI50 (NCI-H460 lung),TGI (NCI-H460 lung),GI50 (HT29 colon),TGI (HT29 colon),GI50 (SK-OV-3 ovarian),TGI (SK-OV-3 ovarian),GI50 (SR leukemia),TGI (SR leukemia),GI50 (COLO 205 colon),TGI (COLO 205 colon),GI50 (SF-268 CNS),TGI (SF-268 CNS),GI50 (PC-3 prostate),TGI (PC-3 prostate),GI50 (HOP-62 NSCLC),TGI (HOP-62 NSCLC),GI50 (MCF7 breast),TGI (MCF7 breast),GI50 (SF-539 CNS),TGI (SF-539 CNS)
CCOC(=O)C1=C(C)N2C(=NC3=C(CCC/C3=C\c3ccc(Cl)cc3)C2c2ccc(Cl)cc2)S1 (configuration not stated),4.04 µM,19.4 µM,2.35 µM,5.92 µM,6.68 µM,> 100 µM,1.65 µM,3.95 µM,2.44 µM,4.65 µM,3.24 µM,30.4 µM,2.77 µM,> 100 µM,2.55 µM,5.38 µM,2.44 µM,11 µM,3.88 µM,> 100 µM
C=CCCCOC1[C@H](OCc2ccccc2)C(OCc2ccccc2)C(OC)O[C@@H]1CNC(=O)c1cccc(I)c1 (some centres not stated),2.91 µM,8.64 µM,4.54 µM,> 100 µM,5.45 µM,> 100 µM,2.9 µM,14.6 µM,5.02 µM,> 100 µM,5.38 µM,> 100 µM,2.19 µM,> 100 µM,> 100 µM,> 100 µM,3.5 µM,> 100 µM,4.38 µM,76.4 µM
N#CC(C#N)=C(N)/C(C#N)=C/c1ccc2[nH]ccc2c1,,> 100 µM,,> 100 µM,,> 100 µM,,> 100 µM,,> 100 µM,,> 100 µM,,> 100 µM,,> 100 µM,,> 100 µM,,> 100 µM
Cc1c2ccncc2c(C)c2c1c1cc(CO)ccc1n2C,0.243 µM,1.1 µM,0.338 µM,1.78 µM,0.784 µM,3.71 µM,0.268 µM,2.65 µM,0.373 µM,1.94 µM,0.468 µM,7.81 µM,0.294 µM,1.39 µM,0.335 µM,2.05 µM,0.282 µM,10.4 µM,0.73 µM,4.2 µM
C=C1CC[C@@H]2[C@](C)(COC(C)=O)[C@H](OC(C)=O)CC[C@@]2(C)[C@@H]1CC(Nc1ccc(S(=O)(=O)Nc2nccs2)cc1)C1=CCOC1=O (some centres not stated),10.7 µM,25.3 µM,2.17 µM,4.7 µM,14.4 µM,27.8 µM,1.33 µM,> 100 µM,3.14 µM,10.5 µM,11.3 µM,25.9 µM,7.74 µM,21.5 µM,13.8 µM,27.5 µM,2.59 µM,13.6 µM,2.35 µM,6.31 µM
NS(=O)(=O)c1cccc(-c2ccc3c(NC(=O)C4CC4)n[nH]c3c2)c1,> 16.4 µM,> 25 µM,> 14.4 µM,> 25 µM,9.16 µM,23.6 µM,3.59 µM,> 25 µM,> 14.5 µM,> 22.9 µM,> 21.6 µM,> 25 µM,15.6 µM,> 25 µM,> 14.2 µM,24.7 µM,> 13.3 µM,> 24.1 µM,14.3 µM,> 25 µM
Nc1n[nH]c(N)c1N=Nc1ccc(O)cc1,25.1 µM,97.2 µM,29.7 µM,> 100 µM,49.2 µM,> 100 µM,10.3 µM,59.8 µM,18.9 µM,54.2 µM,20.5 µM,82.6 µM,20.3 µM,> 100 µM,31.8 µM,> 100 µM,23.5 µM,90.8 µM,13.1 µM,36.4 µM
Nc1n[nH]c2ccc([C@@H]3Nc4cc5[nH]ncc5cc4[C@H]4C5CCC(C5)[C@@H]34)cc12 (some centres not stated),0.368 µM,> 41.4 µM,0.367 µM,> 44.3 µM,16 µM,> 100 µM,0.564 µM,> 100 µM,0.424 µM,> 40.6 µM,1.71 µM,> 100 µM,0.365 µM,> 41.9 µM,0.689 µM,98 µM,0.384 µM,> 80.8 µM,0.269 µM,3.17 µM
COc1cccc(C2C(C#N)=C(N)Oc3c2ccc2ccccc32)c1 (configuration not stated),0.0246 µM,1.18 µM,0.0926 µM,4.71 µM,0.0431 µM,18.3 µM,< 0.01 µM,> 66.7 µM,0.132 µM,0.639 µM,0.0315 µM,10.5 µM,0.0119 µM,15.5 µM,0.0203 µM,16.2 µM,< 0.01 µM,12.8 µM,0.0166 µM,0.0695 µM
COc1ccc2c(c1)C(=O)c1c-2n(CCCN)c(=O)c2cc([N+](=O)[O-])ccc12,< 0.01 µM,0.0146 µM,,,< 0.01 µM,< 0.01 µM,< 0.01 µM,< 0.01 µM,,,< 0.01 µM,< 0.01 µM,< 0.01 µM,1.79 µM,< 0.01 µM,0.0234 µM,< 0.01 µM,< 0.01 µM,< 0.01 µM,< 0.01 µM
O=NN(CCCl)C(=O)NC1CCC(=O)NC1=O (configuration not stated),,463 µM,,> 1250 µM,,> 1010 µM,,674 µM,,684 µM,,615 µM,,> 1250 µM,,505 µM,,> 1190 µM,,309 µM
CCN(CC)CCC(CNc1c(C)cnc2cc(Cl)ccc12)c1ccc(Cl)cc1 (configuration not stated),10 µM,25.2 µM,,,15.1 µM,28.9 µM,0.0333 µM,7.06 µM,,,11.1 µM,26.1 µM,10.7 µM,24 µM,10.6 µM,23.8 µM,3.27 µM,16.3 µM,1.63 µM,3.31 µM
COc1ccc2c(c1)/C(=C\c1c[nH]c3ccc(OC)cc13)C(=O)N2,3.26 µM,13.1 µM,4.07 µM,14.9 µM,2.58 µM,8.64 µM,2.39 µM,7.9 µM,2.89 µM,9.84 µM,3.61 µM,15.3 µM,3.84 µM,16.3 µM,2.72 µM,12.5 µM,2.65 µM,13.1 µM,3.95 µM,15.6 µM
